Test results taken from paper PMC5684143, “New melanocortin-like peptide of E. coli can suppress inflammation via the mammalian melanocortin-1 receptor (MC1R): possible endocrine-like function for microbes of the gut” (NPJ Biofilms and Microbiomes, 2017).

Legend:
[1] = test system: RAW 264.7 cells; experiment: LPS-induced HMGB1 release by RAW 264.7 cells (western blot); assay type: cell-based, murine; conditions: LPS 100 ng/ml, peptide 10^-10 M, 16-20 hrs, four independent experiments, P < 0.01
Protocol: Murine macrophage-like RAW 264.7 cells were obtained from American Type Culture Collection, and were grown in Dulbecco’s Modified Eagle’s Medium (DMEM, Life Technologies) containing 10% (vol/vol) heat-inactivated fetal bovine serum (FBS, Hyclone Lab. Inc.), penicillin 100 U/ml, and streptomycin 100 μg/ml (BioWhittaker Inc.). Cells were suspended in medium and incubated in 24-well or 48-well tissue-culture plates overnight in a humidified incubator (37 °C, 5% CO2). Growth medium was removed and replaced by Opti-MEM I serum-free medium (Life Technologies) overnight. […]
(§1) The levels of HMGB1 in the culture medium or murine serum were measured by western immunoblotting as previously described.[30] […] The relative band intensity was quantified by using the NIH image 1.59 software. The levels of HMGB1 (expressed as % maximum effect) were calculated with reference to standard curves generated with purified rHMGB1 and expressed as mean ± SEM of four experiments.
Murine macrophage-like RAW 264.7 cells were incubated with LPS (100 ng/ml) in the absence or presence of MECO-1 or alpha-MSH at 10^-10 M. At 16-20 hrs after stimulation, aliquots of cell-free medium were examined. HMGB1 levels in the (conditioned) culture medium were expressed as mean ± SEM of four independent experiments with the peak level (obtained with LPS) set at 100%. […]

[2] = test system: RAW 264.7 cells; experiment: Poly I:C-induced TNF release by RAW 264.7 cells; assay type: cell-based, murine; conditions: peptide 10^−15 to 10^−9 M; reduced effects above that
Protocol: Murine macrophage-like RAW 264.7 cells were obtained from American Type Culture Collection, and were grown in Dulbecco’s Modified Eagle’s Medium (DMEM, Life Technologies) containing 10% (vol/vol) heat-inactivated fetal bovine serum (FBS, Hyclone Lab. Inc.), penicillin 100 U/ml, and streptomycin 100 μg/ml (BioWhittaker Inc.). Cells were suspended in medium and incubated in 24-well or 48-well tissue-culture plates overnight in a humidified incubator (37 °C, 5% CO2). Growth medium was removed and replaced by Opti-MEM I serum-free medium (Life Technologies) overnight. In the experiments, cell monolayers were stimulated with HMGB1 or LPS, in the absence or presence of MECO-1 or alpha-MSH; cell-free supernatants were assayed for TNF by ELISA or HMGB1 by western blotting.
Concentrations of TNF and IL-6 were each determined using a commercially available enzyme-linked immunosorbent assay (ELISA) kit (R&D System Inc.) as previously described.[34] The levels of TNF or IL-6 were calculated with reference to standard curves.
Fig. 2 Cytokine-induced TNF release inhibited by MECO-1. a Lipopolysaccharide (LPS), derived from the cell wall of Gram-negative bacteria, is a TLR4 and TLR2 agonist. RAW 264.7 cells were treated with MECO-1 and LPS simultaneously and incubated overnight. Supernatants were tested for TNF with ELISA. b Poly I:C, synthetic double stranded RNA, is recognized by TLR3. […]

[3] = test system: Balb/C mice; experiment: CLP sepsis, survival and serum cytokines at 40 h (protocol B); assay type: in vivo; conditions: one dose 5 mg/kg i.p. at 24 h
Protocol: In vivo studies were performed in accordance with National Institutes of Health guidelines and with the approval of the North Shore-Long Island Jewish Health System’s Institutional Animal Care and Use Committee (IACUC). In mice, polymicrobial sepsis was induced by surgical ligation and perforation of the cecum, a widely used technique known as CLP. Briefly, male BALB/c mice (7–8 weeks old, 20–25 g) were anesthetized with a mixture of ketamine (100 mg/kg) and xylazine (8 mg/kg) intramuscularly, and a 15 mm midline incision was made to expose the cecum. After ligation of the cecum with a 6.0 silk suture below the junction of the ileo–cecal valve, the ligated cecal stump was perforated once with a 22-gauge needle. The cecum was then gently squeezed to extrude a small amount of feces through the perforation site. The cecum was restored to its normal intra-abdominal position, and the laparotomy was closed with 6.0 silk sutures. Immediately after CLP surgery, all animals were resuscitated with normal saline solution (subcutaneously 20 ml/kg body weight), and given a single dose of antibiotics (primaxin 0.5 mg/kg). In sham operated animals, the cecum was temporarily ligated, but the bowel was not punctured; these animals also received antibiotic treatment and resuscitation fluid. […] Survival was monitored twice daily for 2 weeks, at which time survivors were killed (CO2 asphyxia). […] Survival was monitored twice daily after surgery. […]
as §1
Concentrations of TNF and IL-6 were each determined using a commercially available enzyme-linked immunosorbent assay (ELISA) kit (R&D System Inc.) as previously described.[34] The levels of TNF or IL-6 were calculated with reference to standard curves. […]

## alpha-melanocyte-stimulating hormone [alpha-MSH]
[1]
  LPS-induced HMGB-1 secretion: markedly reduced
[2]
  inhibition of Poly I:C-induced TNF release: up to 90%
[3]; ELISA, p < 0.05 vs CLP alone
  serum TNF and IL-6 in survivors at 40 h after CLP: significantly muted responses
[3]; n = 10, saline four out of nine
  animals surviving to 40 h after CLP: Six of ten
[3]; western blot, saline three of four
  animals with elevated serum HMGB1 at 40 h after CLP: none
